# US9670363B2, “Substituted anthraquinone dyes for cellular stains and enzyme detection” (Biotium, Inc., priority 2011, dated 2017)
# “Also recorded” adds a separate entry of the source.
# How the values were obtained:
# Format in all cases: cell-based
# HeLa cells [1] = test: Staining of fixed and permeabilized cells; details: HeLa fixed with 4% paraformaldehyde, 0.5% Triton X-100; 3 μM DRAQ7 or 10 μM dye, 5 minutes, room temperature
# Description: Adherent HeLa cells in 12-well plates were fixed with 4% paraformaldehyde for 15 minutes at room temperature. Cells were then permeabilized with 0.5% Triton X-100 for 10 minutes at room temperature. Three micromolar (3 μM, the manufacturer's recommended concentration) DRAQ7 or 10 μM Dye No. 7, 13, or 15 were added to the fixed and permeabilized cells in 1×PBS and incubated for 5 minutes at room temperature. The dye/PBS solution was removed and replaced with fresh 1×PBS. Fluorescence was observed using an epifluorescence microscope with the CY5 filter (FIG. 3).
# HeLa cells [2] = test: Toxicity approximately 18 hours after staining (bright-field microscopy); details: live HeLa cells, 5 μM DRAQ5 or 20 μM Dye No. 1, 5 minutes at 37° C., then approximately 18 hours in fresh medium
# Description: Dark spots are indicative of dead cells.
# Live HeLa cells were treated with either 5 μM DRAQ5 or 20 μM Dye No. 1 in 1×PBS for 5 minutes at 37° C. The dye/PBS solution was removed and replaced with fresh Dulbecco/Vogt modified Eagle's minimal essential medium (DMEM) supplemented with bovine growth serum (BGS). The cells were incubated at 37° C. for approximately 18 hours, and observed under bright-field at 10× magnification (FIG. 2).
# HeLa cells [3] = test: Staining live cells with Dye No. 1 (fluorescence microscopy); details: live adherent HeLa cells; 5 μM DRAQ5 or 10 μM Dye No. 1 in 1× PBS, 37° C., 5 minutes; CY5 filter
# Description: Live, adherent HeLa cells grown in 12-well plates were treated with either 5 μM DRAQ5 or 10 μM of Dye No. 1 in 1× phosphate buffered saline (PBS). Cells were incubated at 37° C. for 5 minutes. Fluorescence was observed using an epifluorescence microscope with the CY5 filter.
# HeLa cells [4] = test: Staining of live (unfixed) HeLa cultures; selective staining of dead cells; details: 1 uL of 500 uM dye stock in 100 uL medium, five minutes, room temperature
# Description: HeLa cells were seeded at a density of 2×10^4 cells in 100 uL culture medium per well in tissue culture treated, optical bottom, black 96-well plates. One day after seeding, 1 uL of 500 uM dye stock in DMSO was added directly to the culture medium (100 uL) and mixed by trituration. The cells were incubated at room temperature for five minutes. The culture medium containing dye was removed and replaced by 100 uL phosphate buffered saline. Cellular fluorescence was imaged using an the Cy5 filter set of an Olympus IX71 epifluorescence microscope and a Q-Imaging Retiga 2000R Fast 1394 mono camera (FIG. 5). […] Probes that can selectively detect dead cells are useful in cell viability assays, which are widely practiced in drug screening.
# HeLa cells [5] = test: Normalizing or counting cell number; details: HeLa cells seeded at several densities, fixed, permeabilized, stained one hour at room temperature; LI-COR Odyssey
# Description: HeLa cells were counted/normalized using Dye No. 1. HeLa cells were seeded in 96-well—lates at several densities per well (as indicated on the x-axis of FIG. 7). After 24 hours, cells were fixed, permeabilized, and stained with the indicated dyes for one hour at room temperature according to the protocol provided by the supplier of the DRAQ5/Sapphire700 system. Fluorescence was quantitated using a LI-COR Odyssey system. HeLa cells seeded at 25,000 cells were confluent at the time of the assay.
# rat skeletal muscle = test: Staining of tissue sections with Dye No. 7; details: acetone-fixed frozen sections of rat skeletal muscle; 10 uM, five minutes, room temperature
# Description: Acetone-fixed frozen sections of rat skeletal muscle were purchased from Biochain Institute Inc. (Hayward, Calif.). Sections were rinsed in phosphate buffered saline and stained with 10 uM Dye No. 7 and 5 units/mL CF488A-phalloidin (Biotium Inc, Hayward, Calif.) for five minutes at room temperature. Sections were rinsed twice in phosphate buffered saline and mounted with EverBrite mounting medium (Biotium, Inc, Hayward, Calif.). Tissue fluorescence was imaged using the FITC and Cy5 filter sets of an Olympus IX71 epifluorescence microscope and a Q-Imaging Retiga 2000R Fast 1394 mono camera (FIG. 4).
Compound,nuclear staining specificity in fixed and permeabilized cells (HeLa cells [1]),toxicity (cell death) after staining (HeLa cells [2]),nuclear staining of live cells (HeLa cells [3]),staining of live versus dead cells in live (unfixed) culture (HeLa cells [4]),fluorescence versus number of cells stained (HeLa cells [5]),nuclear staining specificity in tissue (rat skeletal muscle)
O=C1c2c(O)ccc(NCCNC3=NCCN3)c2C(=O)c2c(O)ccc(NCCNC3=NCCN3)c21 [Dye No. 13],much more specific in nuclear staining than Draq7,–,–,–,–,–
"CN(C)CCNc1ccc(O)c2c1C(=O)c1c(O)ccc(NCCN(C)C)c1C2=O [Draq5, reference compound]",–,more cell death than that with Dye No. 1,stained the nuclei of live cells with high specificity; also recorded: stained the nuclei of live cells specifically,–,–,–
CC(=N)NCCNc1ccc(O)c2c1C(=O)c1c(O)ccc(NCCNC(C)=N)c1C2=O [Dye No. 15],much more specific in nuclear staining than Draq7; also recorded: stained cell nuclei specifically,–,–,–,–,–
CN(C)CCNc1ccc(O)c2c1C(=O)c1c(O)ccc(NCCNC(=O)C3CCCN3)c1C2=O (centres unmarked) [Dye No. 1],–,caused fewer cell deaths than Draq5 even at a much higher concentration; also recorded: much less toxic than Draq5,stained the nuclei of live cells with high specificity; also recorded: stained the nuclei of live cells specifically,stained the nuclei of all cells,linear with the number of cells stained,–
CN(C)CCNc1ccc(O)c2c1C(=O)c1c(O)ccc(NCCNC(=N)CCCCC(=N)NCCNc3ccc(O)c4c3C(=O)c3c(O)ccc(NCCN(C)C)c3C4=O)c1C2=O [Dye No. 7],much more specific in nuclear staining than Draq7; also recorded: stained cell nuclei specifically,–,–,selectively stained the nuclei of dead cells only,–,excellent nuclear specificity
